The target of one data set is T1, AtNIC3 (Arabidopsis thaliana, UniProt Q9FMX8).
T1 sequence (Q9FMX8 1-198): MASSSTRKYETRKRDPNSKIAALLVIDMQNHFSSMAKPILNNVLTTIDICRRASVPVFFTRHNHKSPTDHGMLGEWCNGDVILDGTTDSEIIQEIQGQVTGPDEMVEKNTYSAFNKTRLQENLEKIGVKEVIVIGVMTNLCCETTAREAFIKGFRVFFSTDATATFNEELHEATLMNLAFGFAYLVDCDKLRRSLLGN
Kind of data set: In vitro PZase assay (TLC). Particulars: 5 mM PZA, 12 h, 30 °C. It counts as biochemical. The source says: (§1) Silica TLC plates were developed in dichloromethane/methanol (3:1), and analysed with ultraviolet.

In another data set the target is AtACO2 (Arabidopsis thaliana, UniProt Q41931). Kind of data set: ACO enzymatic activity assay and kinetic analysis (ethylene by GC-FID). The settings on record: even at a high concentration (2 mM). The class given is biochemical.
The subject of data set [1] is Arabidopsis PSB-D suspension cultured cells. Briefly: Ethylene production of suspension cultured cells. It counts as cell-based, Arabidopsis thaliana.
Data set [2] shares this test system. Briefly: Wayne Test, conversion of PZA to POA in suspension cultured cells. It counts as cell-based, Arabidopsis thaliana. The settings on record: 500 μM PZA, 24 h, abolished in boiled cells. How it is done:
500 μM PZA were added to 50 ml Arabidopsis suspension cell log phase cultures or boiled cultures and incubated at 27 °C for 24 h. 1 ml cell culture was collected after centrifugation, and 10 μl 2% ferrous sulfate was added to the supernatant for colour development. The absorbance at 450 nm of each samples was measured by spectrophotometer and the POA concentration was calculated according to the POA-Abs450 standard curve drawn using the reference solutions of POA.
Arabidopsis suspension cells were cultured in liquid MS medium in the presence or absence of 500 μM PZA for 24 h. The culture supernatant was collected by centrifugation and alkalized (pH>11) using sodium hydroxide (NaOH), followed by extracting with ethyl acetate twice to eliminate lipid-soluble molecules. The aqueous phase was collected and acidified (pH<2) using hydrochloric acid (HCl). The protonated cultures were extracted with ethyl acetate five times to enrich POA. The resulting samples were concentrated by reduced pressure distillation and analysed using a Fourier Transform Ion Cyclotron Resonance Mass Spectrometer (Solarix XR, Bruker).

The test system of data set [3] is Arabidopsis etiolated seedlings (Col-0, eto1-2, ctr1-1, ein2-5). Briefly: Ethylene response phenotype of 3-day-old etiolated seedlings (hypocotyl and root length, root hairs, root cells). It counts as in vivo, Arabidopsis thaliana.
Data set [4] has as its system ACC conjugating enzymes (ACC and M-ACC content of eto1-2 seedlings). Briefly: Quantification of ACC and M-ACC. It counts as in vivo, Arabidopsis thaliana. The settings on record: 10-day-old green seedlings, 50 μM PZA. On the procedure:
10-day-old green seedlings of eto1-2 under different treatments were ground in liquid nitrogen, and extracted with 5% SSA (sulfosalicylic acid). For ACC measurement, the extract was oxidized with 2 mM HgCl2, 0.33% NaOCl and 0.2 M NaOH, reacted on ice for 4 min, and then the ethylene production was determined with GC-FID. For M-ACC measurement, the extract was hydrolyzed using 2 M HCl followed by oxidization and ethylene production determination, and the content of ACC and M-ACC were calculated based on the ethylene production and efficiency of oxidization.

A further data set deals with anthocyanin accumulation. Kind of data set: Anthocyanin measurement. It counts as in vivo, Arabidopsis thaliana. The settings on record: 6-day-old Col-0 green seedlings. From the text: 6-day-old green seedlings grown on MS medium supplemented with different concentration of PZA were sampled for anthocyanin measurement by spectrophotometry. The content of anthocyanin is presented as (A535−A650)/g.

Data set [5] deals with ethylene production of Arabidopsis seedlings. Briefly: Measurement of ethylene production of seedlings (GC-FID). Particulars: etiolated and green seedlings, 50 μM. The class given is in vivo, Arabidopsis thaliana. How it is done:
Ethylene production was determined as follows: 30 3-day-old etiolated or 5-day-old green seedlings of Col-0, eto1-2 or other mutants were selected randomly and sealed in a 30 ml vial containing 3 ml liquid MS medium supplemented with indicated treatments. The vial was sealed with a rubber stopper for 24 h at 22 °C prior to ethylene sampling. A 250 μl sample of the headspace gas was withdrawn using a gas-tight syringe from each chamber through the septum stopper, and injected into a gas chromatograph (Agilent 6890NGC, Agilent Technologies, USA) that was equipped with a HP-PLOTQ column (40 m × 530 μm × 40 μm) and a flame ionization detector (FID)[44]. Separations were carried out at 60 °C using N2 as the carrier gas. The area of the ethylene peak was integrated with Agilent Chemstation and results were expressed as the average relative ethylene production (%) of each treatment.

In another data set the test system is EIN3. Briefly: EIN3 protein level (Western blot) and pEBS:GUS staining. The class given is in vivo, Arabidopsis thaliana. Particulars: 1 μM ACC, 50, 100 and 200 μM PZA. (In general: A western blot detects proteins with antibodies after separation by electrophoresis.)
The next data set concerns the target T2, AtNIC2 (Arabidopsis thaliana, UniProt Q9FMX7).
T2 sequence (Q9FMX7 1-198): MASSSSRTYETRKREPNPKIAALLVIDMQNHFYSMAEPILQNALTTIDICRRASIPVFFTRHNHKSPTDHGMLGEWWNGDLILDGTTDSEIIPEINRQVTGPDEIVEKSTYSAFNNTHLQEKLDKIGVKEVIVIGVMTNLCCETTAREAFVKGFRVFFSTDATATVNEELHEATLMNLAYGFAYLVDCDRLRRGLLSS
Briefly: In vitro PZase assay (TLC, NMR). It counts as biochemical. Particulars: 5 mM PZA, 12 h, 30 °C.
From the text: as §1
For NMR analysis, the AtNIC2-catalysed PZase reaction was acidified using HCl and extracted using ethyl acetate. The solvent was removed by reduced pressure distillation. The sample was then re-dissolved in dimethyl sulfoxide-d6 and analysed using Bruker-400 MHz NMR (ARX400, Bruker).

Another data set has as its system GA response. Kind of data set: GA response, pRGA::GFP-RGA reporter seedlings. It counts as in vivo, Arabidopsis thaliana. Particulars: pRGA::GFP-RGA seedlings, 20, 50, 100 μM PZA. On the procedure: (§2) GFP fluorescence and propidium iodide staining signals in roots were detected using Zeiss LSM-710 microscope. All seedlings were grown in the dark for 3 days on MS medium supplemented with the indicated treatments, and then mounted on glass slides and observed in water. For propidium iodide staining, roots were visualized in the presence of propidium iodide without fixation. ImageJ was used to process images and to quantify the fluorescent intensity of GFP.

The next data set has as its system auxin response. Briefly: Auxin response, pDR5::GFP reporter lines. The class given is in vivo, Arabidopsis thaliana. Particulars: pDR5::GFP/Col-0 and pDR5::GFP/ein2-5. How it is done: as §2

The source of these data is article PMC5472784, “Pyrazinamide and derivatives block ethylene biosynthesis by inhibiting ACC oxidase” (Nature Communications, 2017).

Chain of AtACO2 (Q41931 1-303): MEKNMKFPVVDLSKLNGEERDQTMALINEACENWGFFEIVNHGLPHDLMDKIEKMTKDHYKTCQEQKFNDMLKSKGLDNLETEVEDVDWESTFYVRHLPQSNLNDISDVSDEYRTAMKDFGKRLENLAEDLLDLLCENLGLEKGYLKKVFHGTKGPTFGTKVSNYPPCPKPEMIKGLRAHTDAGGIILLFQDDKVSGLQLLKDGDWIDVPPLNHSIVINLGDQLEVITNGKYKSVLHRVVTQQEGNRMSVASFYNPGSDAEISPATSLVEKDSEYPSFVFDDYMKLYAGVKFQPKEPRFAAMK

As for `NC(=O)c1cnccn1` [PZA, pyrazinamide], on AtNIC3, the “conversion of PZA into POA by AtNIC3” value is recorded as “able to convert PZA into POA”. The “inhibition of the activity of AtACO2” value on AtACO2 is recorded as “no inhibition”. The “ethylene production in suspension cultured cells” value in data set [1] is given as “inhibited”. In addition, the “conversion into POA in PSB-D culture” value in data set [2] is given as “converted into POA”. For the same compound, in data set [3] (50 μM), the “cell elongation in the root maturation zone of eto1-2” value is given as “promoted cell elongation”, the “root hair formation of eto1-2” value is “effectively suppressed” and the “size of the cell division zone of eto1-2 root” value is listed as “little effect”. The “short-root and short-hypocotyl phenotype of eto1-2” value in data set [3] (3-day-old etiolated eto1-2 seedlings, MS medium with compound (50 μM shown)) is on record as “partially suppressed”. In addition, in [3] (3-day-old etiolated seedlings), the “phenotype of ethylene signalling mutants ctr1-1 and ein2-5” value is given as “little effect”. The “ACC-induced short hypocotyl and root phenotype” value in data set [3] (Col-0, 1 μM ACC, 50 or 100 μM PZA) is given as “significantly suppressed”. In [3] (Col-0, 2 p.p.m. ethylene, 50 or 100 μM PZA), the ethylene-induced phenotype entry is “no effect”. In addition, the “lengths of hypocotyls and roots of wild-type (Col-0)” value in [3] (etiolated seedlings, increasing doses (1-100 μM)) was “slightly promoted”. Besides, in data set [4], the “ACC level in eto1-2” value is “slight increase” and the “M-ACC level in eto1-2” value is “almost no change”. The “effect on anthocyanin accumulation” value with anthocyanin accumulation was “virtually no effect”. Besides, the “ethylene production of eto1-2” value in data set [5] is reported as “effectively inhibited”. Moreover, the “ACC-induced EIN3 protein accumulation and transcriptional activation of target promoter” value in the data set with EIN3 is reported as “inhibited”. Also, the “conversion of PZA into POA by AtNIC2” value on AtNIC2 is reported as “able to convert PZA into POA”. For the same compound, the “effect on GA response” value in the data set with GA response is given as “virtually no effect”. The “effect on auxin response” value in the data set with auxin response is “EIN2-dependent manner”.
